Read-outs that look alike come from different tables or passages of the source.

This assay relates to HIV-1 reference strain NL4-3. The assay is described as follows: BiCycle assay (MT-2 then TZM-bl cells). It is filed as cell-based. The method, boiled down: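 MT-2 cells were infected with NL4-3 in the presence of five-fold compound dilutions. After 72 h, the supernatant was passed to TZM-bl cells. Two days later, luciferase luminescence was read and IC50 calculated, giving a readout that spans the whole replication cycle.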

The mark [1] stands for this setting: Human immunodeficiency virus 1, NL43, TZM-bl, read-out: BiCycle IC50 nM.
Setting [2] is: Human immunodeficiency virus 1, NL43, MT-2 cells 72 hours then TZM-bl cells two days, NL4-3, read-out: BiCycle IC50.

Regarding `CCNS(=O)(=O)c1ccc(-c2nc(O)c(O)c(C(=O)N[C@H](C)C3CCCCC3)n2)nc1` [Compound 89, (R)-N-(1-cyclohexylethyl)-2-(5-(N-ethylsulfamoyl)pyridin-2-yl)-5,6-dihydroxypyrimidine-4-carboxamide], under setting [1], the IC50 turned out to be 10400 nM.

For `C[C@@H](NC(=O)c1nc(-c2cccc(C(=O)OCc3ccccc3)n2)nc(O)c1O)C1CCCCC1` [Compound 54, benzyl (R)-6-(4-((1-cyclohexylethyl)carbamoyl)-5,6-dihydroxypyrimidin-2-yl)picolinate], the IC50 under setting [2] stood at 422 nM.

With `C[C@@H](NC(=O)c1nc(-c2ccc(CN3CCCC3)cn2)nc(O)c1O)C1CCCCC1` [Compound 93, (R)-N-(1-cyclohexylethyl)-5,6-dihydroxy-2-(5-(pyrrolidin-1-ylmethyl)pyridin-2-yl)pyrimidine-4-carboxamide], the IC50 under setting [1] was 1360 nM.

Turning to `COc1cc(-c2nc(O)c(O)c(C(=O)N[C@H](C)C3CCCCC3)n2)nc2ccccc12` [Compound 68, N-[(1R)-1-cyclohexylethyl]-2-(4-methoxyquinolin-2-yl)-5,6-bis(oxidanyl)pyrimidine-4-carboxamide], under setting [2], the IC50 is 240 nM.

In the case of `Cc1ccc(-c2nc(O)c(O)c(C(=O)N[C@H](C)C3CCCCC3)n2)nc1C` [Compound 67, (R)-N-(1-cyclohexylethyl)-2-(,5,6-dimethylpyridin-2-yl)-5,6-dihydroxypyrimidine-4-carboxamide], the IC50 under setting [2] stood at 1340 nM.

Regarding `C[C@@H](NC(=O)c1nc(-c2ncccc2C(F)(F)F)nc(O)c1O)C1CCCCC1` [Compound 30, (R)-N-(1-cyclohexylethyl)-5,6-dihydroxy-2-(3-(trifluoromethyl)pyridin-2-yl)pyrimidine-4-carboxamide], under setting [2], the IC50 turned out to be 1730 nM.

With `C[C@@H](NC(=O)c1nc(-c2cc(C(=O)OCc3ccccc3)ccn2)nc(O)c1O)C1CCCCC1` [Compound 46, benzyl (R)-2-(4-((1-cyclohexylethyl)carbamoyl)-5,6-dihydroxypyrimidin-2-yl)isonicotinate], under setting [1], the IC50 turned out to be 543 nM.

As for `Cc1cccc(-c2nc(O)c(O)c(C(=O)N[C@H](C)C3CCCCC3)n2)n1` [Compound 18, (R)-N-(1-cyclohexylethyl)-5,6-dihydroxy-2-(6-methylpyridin-2-yl)pyrimidine-4-carboxamide], the IC50 under setting [1] amounted to 437 nM.

Take `C[C@@H](NC(=O)c1nc(-c2ccc(C(=O)NCc3ccccc3)cn2)nc(O)c1O)C1CCCCC1` [Compound 50, (R)-2-(5-(benzylcarbamoyl)pyridin-2-yl)-N(1-cyclohexylethyl)-5,6-dihydroxypyrimidine-4-carboxamide]: the IC50 under setting [1] is 348 nM.

With `C[C@@H](NC(=O)c1nc(-c2cccc(C(F)(F)F)n2)nc(O)c1O)C1CCCCC1` [Compound 44, (R)-N-(1-cyclohexylethyl)-5,6-dihydroxy-2-(6-(trifluoromethyl)pyridin-2-yl)pyrimidine-4-carboxamide], the IC50 under setting [2] was determined as 936 nM.

Turning to `C[C@@H](NC(=O)c1nc(-c2ccc(NC(=O)OC(C)(C)C)cn2)nc(O)c1O)C1CCCCC1` [Compound 61, tert-butyl (R)-(6-(4-((1-cyclohexylethyl)carbamoyl)-5,6-dihydroxypyrimidin-2-yl)pyridin-3-yl)carbamate], under setting [1], the IC50 is 210 nM.

`C[C@@H](NC(=O)c1nc(-c2cc(CCNCc3cccn3C)ccn2)nc(O)c1O)C1CCCCC1` [Compound 91, (R)-N-(1-cyclohexylethyl)-5,6-dihydroxy-2-(4-(2-(((1-methyl-1H-pyrrol-2-yl)methyl)amino)ethyl)pyridin-2-yl)pyrimidine-4-carboxamide]: the IC50 under setting [1] worked out at 1100 nM.

For the compound `O=C(NCCC1CCCC1)c1nc(-c2ccccn2)nc(O)c1O` [Compound 43, N-(2-cyclopentylethyl)-5,6-dihydroxy-2-(pyridin-2-yl)pyrimidine-4-carboxamide], the IC50 under setting [2] is 1380 nM.

Regarding `C[C@@H](NC(=O)c1nc(-c2cc(C(F)(F)F)ccn2)nc(O)c1O)C1CCCCC1` [Compound 27, (R)-N-(1-cyclohexylethyl)-5,6-dihydroxy-2-(4-(trifluoromethyl)pyridin-2-yl)pyrimidine-4-carboxamide], the IC50 under setting [1] is 433 nM.

The record behind these values is patent EP3290412A1, “HIV-1 NUCLEOCAPSID INHIBITORS” (Università degli Studi di Siena, priority 2016, dated 2018).
